In patent publication US12698293B2, “Crystal form of macrocyclic compound, and preparation method therefor and use thereof” (HITGEN INC., priority 2021, dated 2026):

Tests used:
[1] = Pharmacokinetic test in beagle dogs, plasma concentration after oral gavage; assay type: in vivo; details: dog, male beagle dogs, oral single gavage, 8 mg/kg
Procedure: After grouped (3 Beagle dogs per group), male beagle dogs were orally administered with the crystal form of the macrocyclic compound provided by the present invention via single gavage at a dose of 8 mg/kg. The plasma was collected at 0.25 h, 0.5 h, 1.0 h, 2.0 h, 4.0 h, 6.0 h, 8.0 h, and 24 h after the administration. A standard curve with appropriate range was established based on the concentration of the tested sample to calculate the concentration of the tested sample in plasma. The quantitative analysis was carried out and the pharmacokinetic parameters were calculated for the tested sample. The results are shown in Table 5, wherein Cmax represents the peak concentration, AUC0-last represents the area below the drug-time curve, Tmax represents peak time of the drug and T1/2 represents the half-life of the drug.

[2] = Stability test on influence factors (high temperature, high humidity, light), purity by HPLC; assay type: physicochemical; details: for change of purity / impurity content during the experimental period (in words): high temperature, high humidity and light, 30 days
Procedure: The crystal form and the amorphous form of the macrocyclic compound provided by the present invention were subjected to the stability test on influence factors according to China Pharmacopoeia (2020 edition) Part Four General Principles 9103. Specifically, the crystal form of a macrocyclic compound prepared in example 1 and the amorphous form of the macrocyclic compound prepared in comparative example 1 were placed in an open space under the respective conditions of high temperature (60±2° C.), high humidity (90%±5% RH, 25±2° C.) and light (4500±500 Lx) for 30 days to test stability. The observation period was 30 days. The tested samples were taken on days 5, 10 and 30, and analyzed for purity by high performance liquid chromatography.

[3] = Hygroscopicity test by dynamic vapor sorption (DVS); assay type: physicochemical; details: for hygroscopicity characteristic: DVS, 0-80% relative humidity, China Pharmacopoeia 2020 classes; for weight change with increasing humidity (DVS): between 0-80% relative humidity
Procedure: The crystal form and amorphous form of the macrocyclic compound provided by the present invention were evaluated for hygroscopicity, and the test was performed using a dynamic vapor sorption to obtain data. The description of the hygroscopicity characteristic and the definition of the weight gain due to hygroscopicity (as shown in Table 2) are referred to China Pharmacopoeia (2020 edition) Part Four General Principles 9103.
The adsorption-desorption isotherm of the crystal form prepared in example 1 is shown in FIG. 5, wherein the abscissa is relative humidity and the ordinate is weight (%). […] The adsorption-desorption isotherm of the crystal form prepared in comparative example 1 is shown in FIG. 6, wherein the abscissa is relative humidity and the ordinate is weight (%).

[4] = Accelerated stability test, crystal form checked by XRPD; assay type: physicochemical; details: 40 ± 2° C., relative humidity 75 ± 5%, seal
Procedure: The crystal form of the macrocyclic compound provided by the present invention was subjected to accelerated stability test to examine stability according to China Pharmacopoeia (2020 edition) Part Four General Principles 9103. Specifically, the crystal form was placed in a sealed space at temperature of 40±2° C. and a relative humidity of 75±5% for 6 months. The sample to be tested was taken at months 1, 2, 3 and 6, and detected using X-ray Powder Diffractometer.

[5] = listed as comparative example 1

C[C@@H]1CCOc2ccc(F)cc2[C@H]2CCCN2c2ccc3ncc(C#N)c(c3n2)N1 [Example 1, (6R,16R)-9-fluoro-16-methyl-13-oxa-2,17,21,25-tetraazapentacyclo [16.6.2.0^2,6.0^7,12.0^22,26]hexacosane-1(25),7,9,11,18(26), 19,21,23-octane-19-carbonitrile]
AUC(0-t) [1]: 5340 ± 1070 ng·h/mL | Tmax [1]: 1.3 ± 0.58 h | half-life [1]: 19 ± 3.9 h | Cmax ([1]; read-out: C0/Cmax): 729 ± 208 ng/mL | Sample purity (%) ([2]; High humidity (90%±5% RH, 25±2° C.), open, day 5, listed as example 1): 98.8% | Sample purity (%) ([2]; High humidity (90%±5% RH, 25±2° C.), open, day 10, listed as example 1): 98.8% | Sample purity (%) ([2]; High humidity (90%±5% RH, 25±2° C.), open, day 30, listed as example 1): 98.8% | Sample purity (%) ([2]; High temperature (60±2° C.), open, day 5, listed as example 1): 99.0% | Sample purity (%) ([2]; High temperature (60±2° C.), open, day 10, listed as example 1): 98.9% | Sample purity (%) ([2]; High temperature (60±2° C.), open, day 30, listed as example 1): 98.9% | Sample purity (%) ([2]; Light (4500±500 Lx), open, day 5, listed as example 1): 98.9% | Sample purity (%) ([2]; Light (4500±500 Lx), open, day 10, listed as example 1): 98.8% | Sample purity (%) ([2]; Light (4500±500 Lx), open, day 30, listed as example 1): 98.6% | Sample purity (%) ([2]; day 0, listed as example 1): 98.8% | change of purity / impurity content during the experimental period (in words) ([2]; listed as example 1): increased slightly under the light condition only | hygroscopicity characteristic ([3]; listed as example 1): not hygroscopic | weight change with increasing humidity (DVS) ([3]; listed as example 1): approximately 0.1% | crystal form by XRPD ([4]; month 1): Same as initial crystal form | crystal form by XRPD ([4]; month 2): Same as initial crystal form | crystal form by XRPD ([4]; month 3): Same as initial crystal form | crystal form by XRPD ([4]; month 6): Same as initial crystal form

C[C@@H]1CCOc2ccc(F)cc2[C@H]2CCCN2c2ccc3ncc(C#N)c(c3n2)N1 [Comparative Example 1, (6R,16R)-9-fluoro-16-methyl-13-oxa-2,17,21,25-tetraazapentacyclo [16.6.2.0^2,6.0^7,12.0^22,26]hexacosane-1(25),7,9,11,18(26), 19,21,23-octane-19-carbonitrile]
Sample purity (%) ([2]; High humidity (90%±5% RH, 25±2° C.), open, day 5, listed as comparative example 1): 97.9% | Sample purity (%) ([2]; High humidity (90%±5% RH, 25±2° C.), open, day 10, listed as comparative example 1): 98.0% | Sample purity (%) ([2]; High humidity (90%±5% RH, 25±2° C.), open, day 30, listed as comparative example 1): 97.7% | Sample purity (%) ([2]; High temperature (60±2° C.), open, day 5, listed as comparative example 1): 97.6% | Sample purity (%) ([2]; High temperature (60±2° C.), open, day 10, listed as comparative example 1): 97.1% | Sample purity (%) ([2]; High temperature (60±2° C.), open, day 30, listed as comparative example 1): 96.9% | Sample purity (%) ([2]; Light (4500±500 Lx), open, day 5, listed as comparative example 1): 97.4% | Sample purity (%) ([2]; Light (4500±500 Lx), open, day 10, listed as comparative example 1): 96.8% | Sample purity (%) ([2]; Light (4500±500 Lx), open, day 30, listed as comparative example 1): 96.4% | Sample purity (%) ([2]; day 0, listed as comparative example 1): 98.1% | change of purity / impurity content during the experimental period (in words) [2, 5]: decrease in purity | hygroscopicity characteristic [3, 5]: very hygroscopic (not less than 15%) | weight change with increasing humidity (DVS) [3, 5]: about 21.6%
